Reference: patent US7238813B2, “Chemical compounds” (Smithkline Beecham Corporation, priority 2000, dated 2007)
Where a name gives a salt, the structure may show the parent alone.

Legend:
[1] = biological target: T1, GST-TIE2 (intracellular domains of human TIE2) (Homo sapiens, UniProt Q02763); experiment: TIE-2 enzyme assay (TIE2-E), LANCE method; format: biochemical; settings: 80 uM ATP
T1 construct: made in house
Method in brief: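 Baculovirus GST-TIE2 (human intracellular domain, aa 762–1104) preactivated 30 min at RT with 2 mM ATP, then reacted 30 min at RT with 1 μM D1-15 peptide, 80 uM ATP, 10 mM MgCl2, pH 7.4, 2.4% DMSO. EDTA-stopped; LANCE Eu-anti-pTyr/streptavidin-APC read-out. IC50 by nonlinear regression, reported as pIC50.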

[2] = biological target: T2, TIE2 intracellular domain/c-fms extracellular domain (TIE2/c-fms) chimeric protein expressing mouse 3T3 cells (Homo sapiens, UniProt Q02763); experiment: TIE-2 autophosphorylation assay (TIE2-C), ELISA; format: cell-based; settings: TIE2/c-fms 3T3 cells, MCSF activation
T2 construct: a TIE2 intracellular domain/c-fms extracellular domain (TIE2/c-fms) chimeric protein; expressed in transfected cells; host or cells: mouse 3T3 cells
T2 sequence (Q02763 770-1124 limits assumed, change not shown): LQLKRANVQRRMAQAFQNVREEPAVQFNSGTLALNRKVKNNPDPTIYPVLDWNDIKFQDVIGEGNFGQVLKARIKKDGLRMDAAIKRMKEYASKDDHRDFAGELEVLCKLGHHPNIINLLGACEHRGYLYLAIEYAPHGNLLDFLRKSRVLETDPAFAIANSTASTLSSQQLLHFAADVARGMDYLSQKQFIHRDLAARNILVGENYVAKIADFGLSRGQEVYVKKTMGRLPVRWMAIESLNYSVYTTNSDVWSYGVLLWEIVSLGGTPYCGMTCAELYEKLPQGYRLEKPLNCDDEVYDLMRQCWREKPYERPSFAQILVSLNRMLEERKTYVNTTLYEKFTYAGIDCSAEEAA
Procedure: TIE-2 Autophosphorylation Assay (TIE2-C)
The TIE-2 autophosphorylation assay used an ELISA method and a TIE2 intracellular domain/c-fms extracellular domain (TIE2/c-fms) chimeric protein expressing mouse 3T3 cells. This assay measured the autophosphorylation level of TIE2 protein expressed in cells. The cells were cultured in high glucose DMEM (Sigma) containing 10% serum at 37° C. in a humidified 10% CO2, 90% air incubator. The test compound (diluted from a 10 mM stock in DMSO, final DMSO concentration was 0.1%) was incubated with TIE2/c-fms expressing cells for 1 hr in serum free DMEM in 96 well plates followed by the activation of TIE2/c-fms receptor using c-fms ligand, MCSF (macrophage colony stimulating factor). The culture media was removed by aspiration and the cells incubated for at least 30 mins on ice with lysis buffer containing 137 mM NaCl, 2 mM EDTA, 10% glycerol, […] sodium ortho vanadate and complete protease inhibitor cocktail (Roche) in 20 mM Tris-HCl (pH8.0). The cell extracts were transferred into Rat anti-c-fms antibody coated 96 well plates and incubated for 12 hrs at 4° C. The extracts were removed by aspiration and the plate was incubated with biotinylated anti-phosphotyrosine antibody, PT66 (Sigma) and then with HRP (Horseradish Peroxidase)-labeled streptavidin (PIERCE). The optical density at 450 nm derived from HRP catalyzed TMB was measured with an ARVO multilabel counter. (Wallac Berthold Japan). The percent inhibition of activity was calculated relative to blank control wells. The concentration of test compound that inhibits 50% of activity (IC50) was interpolated using nonlinear regression (Levernberg-Marquardt) and the equation, y=Vmax (1−x/(K+x))+Y2, where “K” was equal to the IC50. The IC50 values were converted to pIC50 values, i.e., −log IC50 in Molar concentration.

GST-VEGFR2 = biological target: T3, GST-VEGFR2 (Homo sapiens, UniProt P35968); experiment: VEGF-R2 enzyme assay (VEGF-E), LANCE method; format: biochemical; settings: 75 μM ATP
T3 construct: GST-VEGFR2, baculovirus expressed recombinant constructs of the intracellular domains of human TIE2 tagged by GST; made in house
T3 sequence (P35968 786-1356 limits assumed): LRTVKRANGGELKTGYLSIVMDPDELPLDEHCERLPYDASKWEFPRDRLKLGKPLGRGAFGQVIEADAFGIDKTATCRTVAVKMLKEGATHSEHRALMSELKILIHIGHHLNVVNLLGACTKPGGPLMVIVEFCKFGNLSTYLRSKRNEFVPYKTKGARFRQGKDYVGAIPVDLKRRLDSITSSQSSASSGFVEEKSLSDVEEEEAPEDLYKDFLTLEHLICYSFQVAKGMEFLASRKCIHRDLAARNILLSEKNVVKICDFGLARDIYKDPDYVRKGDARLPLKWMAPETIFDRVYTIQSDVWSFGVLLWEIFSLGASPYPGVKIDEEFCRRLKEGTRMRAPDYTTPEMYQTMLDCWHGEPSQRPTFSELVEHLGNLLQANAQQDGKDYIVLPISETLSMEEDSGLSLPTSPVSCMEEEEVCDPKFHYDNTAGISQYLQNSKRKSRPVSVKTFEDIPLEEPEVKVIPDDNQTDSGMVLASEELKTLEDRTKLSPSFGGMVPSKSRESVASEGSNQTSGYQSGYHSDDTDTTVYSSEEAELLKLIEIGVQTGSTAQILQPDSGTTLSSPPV

[3] = test system: Human umbilical cord endothelial cells (HUVEC); experiment: VEGF-driven cellular proliferation assay: BrdU incorporation assay (VEGF-C); format: cell-based; parameters: key to VEGF-C: + = pIC50 of 5.0–6.0; ++ = pIC50 of 6.0–7.0; +++ = pIC50 of > 7.0; − = a negative or inconclusive result; settings: for IC50: Homo sapiens
Procedure: VFGF-driven Cellular Proliferation Assay: BrdU Incorporation Assay (VEGF-C)
Human umbilical cord endothelial cells (HUVEC, Clonetics, CC2519) were passaged in Type I collagen-coated 100-mm petridishes in EGM-MV medium (Clonetics, CC3125) at 37° C. in a humidified 5% CO2, 95% air incubator. (HUVEC passaged more than 6 times in vitro were discarded and not subjected to assaying.) The cells were harvested using trypsin/EDTA, counted using a haemocytometer and plated at 5000 cells/well in a Type I-collagen coated 96-well plate (Becton Dickinson, 354407) in M199 medium (Gibco BRL, 12340-030) containing 5% FBS (Hyclone, A 1115-L) and gentamicin (at 50 μg/ml, Gibco BRL). After incubation overnight at 37° C., the media were replaced with 100 μl of M199 serum-free medium containing compounds at various concentrations with 0.6% DMSO and gentamicin. The compounds were diluted in serum-free M199 medium from 10 mM stock solutions prepared in 100% DMSO. After a 30 min incubation at 37° C., the cells were fed with 100 μl of serum-free M199 medium containing gentamicin, 0.2% culture-grade bovine serum albumin (BSA, Sigma A1993) and 20 ng/ml of VEGF (R&D systems, 293-VE) or 0.6 ng/ml of basic FGF (R&D systems, 233-FB), and cultured at 37° C. for another 24 h. The cells were pulsed with bromodeoxyuridine (BrdU at 10 μM in serum-free M199) at 37° C. for an additional 24 h. The incorporation of BrdU into the proliferating HUVEC were analyzed using BrdU Cell Proliferation ELISA (Roche Molecular Biochemicals, 1647229) according to the manufacturer's protocols. The optical density at 450 nm was measured with a multilabel counter (ARVO SX, Wallac). The percent inhibition of cell growth was calculated relative to blank control wells. The concentration of test compound that inhibits 50% of cell growth (IC50) was interpolated using nonlinear regression (Levernberg-Marquardt) and the equation, y=Vmax (1−x/(K+x))+Y2, where “K” was equal to the IC50. The IC50, values were converted to pIC50 values, i.e., −log IC50 in Molar concentration.

T1 sequence (Q02763 762-1104): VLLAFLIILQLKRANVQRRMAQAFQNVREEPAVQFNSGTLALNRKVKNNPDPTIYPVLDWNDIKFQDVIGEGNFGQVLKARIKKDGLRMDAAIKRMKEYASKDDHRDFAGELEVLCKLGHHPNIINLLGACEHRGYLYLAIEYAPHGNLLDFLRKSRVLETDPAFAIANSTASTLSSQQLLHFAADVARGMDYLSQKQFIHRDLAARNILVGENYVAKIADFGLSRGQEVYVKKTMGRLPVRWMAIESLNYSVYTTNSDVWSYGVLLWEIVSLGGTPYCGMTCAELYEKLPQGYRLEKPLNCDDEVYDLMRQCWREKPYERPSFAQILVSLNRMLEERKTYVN

IC50 [1] | IC50 [2] | IC50 (GST-VEGFR2) | Compound | IC50 [3] | VEGF-C [3]
< 100 nM | < 100 nM | < 100 nM | COCCOCCOCC(=O)Nc1nc2ccc(Oc3ccc(NC(=O)Nc4cc(C(F)(F)F)ccc4F)cc3)cc2[nH]1 [Example 33, N-(5-(4-((2-Fluoro-5-(trifluoromethyl)phenyl)aminocarbonylamino)phenoxy)-1H-benzimidazol-2-yl)(2-(2-(methoxy)ethoxy)ethoxy)acetamide] | < 100 nM | 
< 100 nM | < 100 nM | < 100 nM | COC(=O)Nc1nc2cc(Oc3ccc(NC(=O)Nc4cccc(C(F)(F)F)c4)cc3)ccc2[nH]1 [Example 19, Methyl N-(5-(4-((3-(trifluoromethyl)phenyl)aminocarbonylamino)phenoxy)-1H-benzimidazol-2-yl)carbamate] |  | −
< 100 nM | < 100 nM | < 100 nM | Cn1cnc(CC(=O)Nc2nc3cc(Oc4ccc(NC(=O)Nc5cc(C(F)(F)F)ccc5F)cc4)ccc3[nH]2)c1 [Example 97, N-(5-(4-((2-Fluoro-5-(trifluoromethyl)phenyl)aminocarbonylamino)phenoxy)-1H-benzimidazol-2-yl)(1methyl-1H-imidazol-4-yl)acetamide] | < 100 nM | 
< 100 nM | < 100 nM | < 100 nM | COC(=O)Nc1nc2cc(Sc3ccc(NC(=O)Nc4cc(C(F)(F)F)ccc4Cl)cc3)ccc2[nH]1.Cl [Example 51, Methyl N-(5-(4-((2-chloro-5-(trifluoromethyl)phenyl)aminocarbonylamino)phenylthio)-1H-benzimidazol-2-yl)carbamate hydrochloride] |  | −
< 100 nM | < 100 nM | < 100 nM | COC(=O)Nc1nc2cc(Oc3cccc(NC(=O)Nc4cc(C(F)(F)F)ccc4F)c3)ccc2[nH]1 [Example 15, Methyl N-(5-(3-((2-Fluoro-5-(trifluoromethyl)phenyl)aminocarbonylamino)phenoxy)-1H-benzimidazol-2-yl)carbamate] | 100 to 1000 nM | 
100 to 1000 nM | < 100 nM | 1000 to 10000 nM | COC(=O)Nc1nc2cc(S(=O)(=O)c3ccc(NC(=O)Nc4cc(C(F)(F)F)ccc4F)cc3)ccc2[nH]1 [Example 12, Methyl N-(5-(4-((2-fluoro-5-(trifluoromethyl)phenyl)aminocarbonylamino)phenylsulfonyl)-1H-benzimidazol-2-yl)carbamate] |  | −
< 100 nM | < 100 nM | < 100 nM | CCOC(=O)Nc1nc2cc(Oc3ccc(NC(=O)Nc4cc(C(F)(F)F)ccc4F)cc3)ccc2[nH]1 [Example 17, Ethyl N-(5-(4-((2-fluoro-5-(trifluoromethyl)phenyl)aminocarbonylamino)phenoxy)-1H-benzimidazol-2-yl)carbamate] | < 100 nM | 
100 to 1000 nM | 100 to 1000 nM | < 100 nM | COC(=O)Nc1nc2cc(Oc3cccc(NC(=O)Nc4cccc(Cl)c4)c3)ccc2[nH]1 [Example 14, Methyl (5-(3-((3-Chlorophenyl)aminocarbonylamino)phenoxy)-1H-benzimidazol-2-yl)carbamate hydrochloride] | 100 to 1000 nM | 
< 100 nM | 100 to 1000 nM | < 100 nM | COC(=O)Nc1nc2ccc(Oc3ccc(NC(=O)Nc4cc(C(F)(F)F)ccc4F)cc3)cc2n1CCN1CCOCC1 [Example 71, Methyl N-(6-(4-((2-fluoro-5-(trifluoromethyl)phenyl)aminocarbonylamino)phenoxy)-1-(2-(4-morpholino)ethyl)-1H-benzimidazol-2-yl)carbamate] | 1000 to 10000 nM | 
< 100 nM | 100 to 1000 nM | < 100 nM | COC(=O)Nc1nc2cc(Oc3ccc(NC(=O)Nc4cccc(Cl)c4)cc3)ccc2[nH]1 [Example 1, Methyl N-(5-(4-((3-chlorophenyl)aminocarbonylamino)phenoxy)-1H-benzimidazol-2-yl)carbamate] |  | −
< 100 nM | < 100 nM |  | COC(=O)Nc1nc2cc(Oc3ccc(NC(=O)Nc4cccc(SC(F)(F)F)c4)cc3)ccc2[nH]1 [Example 41, Methyl N-(5-(4-((3-(trifluoromethylthio)phenyl)aminocarbonylamino)phenoxy)-1H-benzimidazol-2-yl)carbamate] |  | −
< 100 nM | 100 to 1000 nM |  | CCc1cccc(NC(=O)Nc2ccc(Oc3ccc4[nH]c(NC(=O)OC)nc4c3)cc2)c1 [Example 11, Methyl N-(5-(4-((3-ethylphenyl)aminocarbonylamino)phenoxy)-1H-benzimidazol-2-yl)carbamate] |  | −
100 to 1000 nM | < 100 nM |  | COC(=O)Nc1nc2ncc(Oc3ccc(NC(=O)Nc4cc(C(F)(F)F)ccc4F)cc3)cc2[nH]1.Cl [Example 75, Methyl N-(6-(4-((2-fluoro-5-(trifluoromethyl)phenyl)aminocarbonylamino)phenoxy)-3,4-diaza-1H-indole-2-yl)carbamate dihydrochloride] |  | −
< 100 nM | 100 to 1000 nM |  | COC(=O)Nc1nc2cc(Oc3cccc(NC(=O)Nc4cccc(C(F)(F)F)c4)c3)ccc2[nH]1 [Example 20, Methyl N-(5-(3-((3-(trifluoromethyl)phenyl)aminocarbonylamino)phenoxy)-1H-benzimidazol-2-yl)carbamate] | < 100 nM | 
< 100 nM | < 100 nM |  | COCCOCC(=O)Nc1nc2ccc(Oc3ccc(NC(=O)Nc4cc(C(F)(F)F)ccc4F)cc3)cc2[nH]1 [Example 34] |  | −
< 100 nM | < 100 nM |  | COC(=O)Nc1nc2cc(Oc3ccc(NC(=O)Nc4cccc(Br)c4)cc3)ccc2[nH]1 [Example 40, Methyl N-(5-(4-((3-bromophenyl)aminocarbonylamino)phenoxy)-1H-benzimidazol-2-yl)carbamate] |  | −

Compound | IC50 [1] | IC50 [2] | IC50 (GST-VEGFR2) | IC50 [3] | VEGF-C [3]
CC(=O)Nc1nc2cc(Oc3ccc(NC(=O)Nc4cc(C(F)(F)F)ccc4F)nc3)ccc2[nH]1 [Example 36, N-(5-(2-((2-fluoro-5-(trifluoromethyl)phenyl)aminocarbonylamino)-5-pyridyloxy)-1H-benzimidazol-2-yl)acetamide dihydrochloride] | < 100 nM | < 100 nM |  |  | −
